ChEMBL document CHEMBL4831509, “Identification, semisynthesis, and anti-inflammatory evaluation of 2,3-seco-clavine-type ergot alkaloids from human intestinal fungus Aspergillus fumigatus CY018” (Eur J Med Chem, 2021)
One block for each molecule: values may come before it. Calls of active or inactive are those of the source. The calls are words filed in the database; no cut-off is given here.

Legend:
RAW264.7 [1] = assay: Antiinflammatory activity against LPS-induced mouse RAW264.7 cells assessed as inhibition of NO production preincubated for 1 hr followed by LPS stimulation and measured after 24 hrs by Greiss reagent based assay; format: functional, cell-based
RAW264.7 [2] = assay: Antiinflammatory activity against LPS-induced mouse RAW264.7 cells assessed as downregulation of iNOS protein expression at 2.5 to 10 uM by western blot analysis; format: functional, cell-based; settings: dose 2.5-10 µM
RAW264.7 [3] = assay: Antiinflammatory activity against LPS-induced MD2-knockdown mouse RAW264.7 cells assessed as reduction in TNF-alpha mRNA expression by qRT-PCR analysis; format: functional, cell-based
RAW264.7 [4] = assay: Downregulation of MD2 expression in mouse RAW264.7 cells at 2.5 to 10 uM by western blot analysis; format: functional, cell-based; settings: dose 2.5-10 µM
RAW264.7 [5] = assay: Antiinflammatory activity against LPS-induced mouse RAW264.7 cells assessed as reduction in IL-6 production preincubated for 1 hr followed by LPS stimulation and measured after 24 hrs by ELISA; format: functional, cell-based; settings: dose 2.5-10 µM, time 25.0 hrs
RAW264.7 [6] = assay: Antiinflammatory activity against LPS-induced MD2-knockdown mouse RAW264.7 cells assessed as reduction in TNF-alpha secretion pretreated for 1 hr followed by LPS stimulation and measured after 24 hrs by ELISA; format: functional, cell-based; settings: time 25.0 hrs
RAW264.7 [7] = assay: Inhibition of MD2 in LPS-stimulated mouse RAW264.7 cells assessed as reduction in JNK phosphorylation at 2.5 to 10 uM measured by immunoblot analysis; settings: dose 2.5-10 µM
RAW264.7 [8] = assay: Antiinflammatory activity against LPS-induced mouse RAW264.7 cells assessed as reduction in TNF-alpha production preincubated for 1 hr followed by LPS stimulation and measured after 24 hrs by ELISA; format: functional, cell-based; settings: dose 2.5-10 µM, time 25.0 hrs
RAW264.7 [9] = assay: Inhibition of MD2 in LPS-stimulated mouse RAW 264.7 cells assessed as reduction in IKKbeta phosphorylation by western blot analysis; settings: dose 2.5-10 µM
RAW264.7 [10] = assay: Downregulation of TLR4 expression in mouse RAW264.7 cells at 2.5 to 10 uM by western blot analysis; format: functional, cell-based; settings: dose 2.5-10 µM
RAW264.7 [11] = assay: Inhibition of MD2 in mouse RAW264.7 cells assessed as reduction in LPS-induced TLR4/MD2 complex formation preincubated for 30 mins followed by LPS stimulation for 30 mins by co-immunoprecipitation analysis; format: cell-based; settings: dose 2.5-10 µM, time 60.0 min
RAW264.7 [12] = assay: Binding affinity to MD2 in mouse RAW264.7 cells assessed as inhibition of LPS/MD2 colocalization at 10 uM preincubated for 1 hr followed by incubation with FITC-conjugated LPS for 1 hr by DAPI staining based confocal microscopy; format: cell-based; settings: time 2.0 hrs
RAW264.7 [13] = assay: Antiinflammatory activity against LPS-induced MD2-knockdown mouse RAW264.7 cells assessed as reduction in COX-2 mRNA expression by qRT-PCR analysis; format: functional, cell-based
[14] = Binding affinity to MD2 (unknown origin) assessed as equilibrium dissociation constant by surface plasmon resonance assay; parameters: species or system Homo sapiens
[15] = target: T1, Toll-like receptor 4 (Mus musculus) (UniProt Q9QUK6); assay: Binding affinity to TLR4 in mouse RAW264.7 cells assessed as inhibition of LPS/TLR4 colocalization at 10 uM preincubated for 1 hr followed by incubation with FITC-conjugated LPS for 1 hr by DAPI staining based confocal microscopy; format: cell-based; settings: time 2.0 hrs
T1 sequence (whole entry): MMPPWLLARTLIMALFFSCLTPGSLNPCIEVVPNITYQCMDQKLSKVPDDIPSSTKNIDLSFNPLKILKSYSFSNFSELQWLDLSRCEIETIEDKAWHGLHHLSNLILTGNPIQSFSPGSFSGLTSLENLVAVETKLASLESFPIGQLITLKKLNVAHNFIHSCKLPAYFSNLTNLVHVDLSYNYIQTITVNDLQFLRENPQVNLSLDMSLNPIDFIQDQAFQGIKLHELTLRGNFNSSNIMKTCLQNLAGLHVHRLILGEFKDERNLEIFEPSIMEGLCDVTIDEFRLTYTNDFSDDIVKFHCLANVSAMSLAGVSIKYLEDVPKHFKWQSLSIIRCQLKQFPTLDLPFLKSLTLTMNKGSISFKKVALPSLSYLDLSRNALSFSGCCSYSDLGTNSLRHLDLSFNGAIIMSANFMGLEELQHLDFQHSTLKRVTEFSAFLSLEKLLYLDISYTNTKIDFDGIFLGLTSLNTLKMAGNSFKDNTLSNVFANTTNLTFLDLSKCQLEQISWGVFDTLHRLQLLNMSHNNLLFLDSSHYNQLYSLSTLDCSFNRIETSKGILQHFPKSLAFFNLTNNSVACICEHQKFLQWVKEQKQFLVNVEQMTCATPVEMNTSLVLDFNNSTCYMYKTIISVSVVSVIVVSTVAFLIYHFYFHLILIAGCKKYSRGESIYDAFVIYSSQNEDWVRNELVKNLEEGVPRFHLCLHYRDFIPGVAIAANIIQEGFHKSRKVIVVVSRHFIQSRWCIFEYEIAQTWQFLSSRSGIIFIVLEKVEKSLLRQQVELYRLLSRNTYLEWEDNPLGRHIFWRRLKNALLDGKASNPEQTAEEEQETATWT

RAW264.7 [16] = assay: Inhibition of MD2 in LPS-stimulated mouse RAW264.7 cells assessed as reduction in p65 nuclear translocation by measuring red fluorescence intensity in nucleus at 10 uM preincubated for 1 hr followed by LPS stimulation and measured after 6 hrs by DAPI staining based confocal microscopy; settings: time 7.0 hrs
RAW264.7 [17] = assay: Inhibition of MD2 in LPS-stimulated mouse RAW264.7 cells assessed as reduction in ERK phosphorylation at 2.5 to 10 uM measured by immunoblot analysis; settings: dose 2.5-10 µM
RAW264.7 [18] = assay: Antiinflammatory activity against LPS-induced mouse RAW264.7 cells assessed as downregulation of COX2 protein expression at 2.5 to 10 uM by western blot analysis; format: functional, cell-based; settings: dose 2.5-10 µM
RAW264.7 [19] = assay: Antiinflammatory activity against LPS-induced MD2-knockdown mouse RAW264.7 cells assessed as reduction in iNOS mRNA expression by qRT-PCR analysis; format: functional, cell-based
Homo sapiens [20] = species: Homo sapiens; assay: Binding affinity to MD2 (unknown origin) assessed as dissociation constant by surface plasmon resonance assay
Homo sapiens [21] = species: Homo sapiens; assay: Binding affinity to MD2 (unknown origin) assessed as association constant by surface plasmon resonance assay
RAW264.7 [22] = assay: Antiinflammatory activity against LPS-induced MD2-knockdown mouse RAW264.7 cells assessed as reduction in IL-6 mRNA expression by qRT-PCR analysis; format: functional, cell-based
RAW264.7 [23] = assay: Inhibition of MD2 in LPS-stimulated mouse RAW 264.7 cells assessed as reduction in p65 phosphorylation by western blot analysis; settings: dose 2.5-10 µM
RAW264.7 [24] = assay: Inhibition of MD2 in LPS-stimulated mouse RAW264.7 cells assessed as reduction in p38 phosphorylation at 2.5 to 10 uM measured by immunoblot analysis; settings: dose 2.5-10 µM
RAW264.7 [25] = assay: Antiinflammatory activity against LPS-induced mouse RAW264.7 cells assessed as reduction in IL-6 production at 10 uM preincubated for 1 hr followed by LPS stimulation and measured after 24 hrs by ELISA relative to control; format: functional; settings: time 25 hrs
RAW264.7 [26] = assay: Antiinflammatory activity against LPS-induced mouse RAW264.7 cells assessed as reduction in TNF-alpha production at 10 uM preincubated for 1 hr followed by LPS stimulation and measured after 24 hrs by ELISA relative to control; format: functional; settings: time 25 hrs

SMILES: C=CC(C)(C)c1[nH]c2cccc3c2c1C[C@H]1NC[C@@H](C)[C@H](OC(C)=O)[C@H]31
IC50 (RAW264.7 [1]): 60.4 µM

SMILES: C=CC(C)(C)c1[nH]c2cccc3c2c1C[C@@H]1[C@@H]3[C@@H](OC(C)=O)[C@H](C)CN1C
IC50 (RAW264.7 [1]): 22.8 µM

SMILES: COc1ccc2c(c1)c(CC(=O)O)c(C)n2C(=O)c1ccc(Cl)cc1 [INDOMETHACIN]
IC50 (RAW264.7 [1]): 11 µM

SMILES: C=CC(C)(C)C(=O)Nc1cccc2c1C(=O)C[C@H]1NC[C@H](C)[C@@H](OC(C)=O)[C@@H]21
IC50 (RAW264.7 [1]): 7.83 µM

SMILES: C=CC(C)(C)C(=O)Nc1cccc2c1C(=O)C[C@H]1NC[C@@H](C)[C@H](OC(C)=O)[C@H]21
IC50 (RAW264.7 [1]): 53.3 µM

The next lines start with results.

IC50 (RAW264.7 [1]): 9.47 µM
SMILES: C=CC(C)(C)C(=O)Nc1cccc2c3cc(C)cn(C)c-3cc(=O)c12

Kd [14]: 14.5 µM
Activity [15]: inactive
IC50 (RAW264.7 [1]): 3.48 µM
Kdiss (Homo sapiens [20]): 0.0054 s⁻¹
Ka (Homo sapiens [21]): 373 M⁻¹ s⁻¹
SMILES: C=CC(C)(C)C(=O)Nc1cccc2c1C(=O)C[C@@H]1[C@H]2[C@H](OC(C)=O)[C@@H](C)CN1C
Activity (RAW264.7 [2]): Active
Activity (RAW264.7 [3]): inactive
inhibition (RAW264.7 [4]): Active
Activity (RAW264.7 [5]): Dose-Dependent Effect
Activity (RAW264.7 [6]): inactive
inhibition (RAW264.7 [7]): Active
Activity (RAW264.7 [8]): Dose-Dependent Effect
inhibition (RAW264.7 [9]): Dose-Dependent Effect
inhibition (RAW264.7 [10]): Active
inhibition (RAW264.7 [11]): Dose-Dependent Effect
Activity (RAW264.7 [12]): Active
Activity (RAW264.7 [13]): inactive
inhibition (RAW264.7 [16]): Active
inhibition (RAW264.7 [17]): Active
Activity (RAW264.7 [18]): Active
Activity (RAW264.7 [19]): inactive
Activity (RAW264.7 [22]): inactive
inhibition (RAW264.7 [23]): Dose-Dependent Effect
inhibition (RAW264.7 [24]): Active
inhibition at 10 µM (RAW264.7 [25]): 84%
inhibition at 10 µM (RAW264.7 [26]): 68.2%

IC50 (RAW264.7 [1]): 43.2 µM
SMILES: C=CC(C)(C)C(=O)Nc1cccc2c1C(=O)C[C@@H]1[C@@H]2[C@@H](OC(C)=O)[C@H](C)CN1C
